# Values of other authors, collected in patent US20140363484A1, “FIBROUS BIO-DEGRADABLE POLYMERIC WAFERS SYSTEM FOR THE LOCAL DELIVERY OF THERAPEUTIC AGENTS IN COMBINATIONS” (Amrita Vishwa Vidyapeetham, priority 2012, published 2014).
# Details: under physiological conditions
structure (smiles),measurement,value
Cn1nnc2c(C(N)=O)ncn2c1=O [temozolomide],half-life,1.8 h
